The values below come from patent publication US20160166565A1, “TREATMENT OF MULTIPLE SCLEROSIS WITH COMBINATION OF LAQUINIMOD AND FLUPIRTINE” (Teva Pharmaceutical Industries, Ltd., priority 2013, published 2016).

Where two headings read alike, the source gives them in different places.

In this assay the test system is MOG-induced EAE Mice. In words: MOG-induced EAE in mice, laquinimod alone or in combination with flupirtine. In kind it is in vivo, mice (C57BL/6). To be noted: oral gavage qd, Day 1 to 30; for inhibition at 30 mg/kg: Mus musculus, vs vehicle.
Where [1] appears, read: 0.5% MC + Flupirtin 30 mg/kg/day.

On to `CCOC(=O)Nc1ccc(NCc2ccc(F)cc2)nc1N` [Flupirtin, ethyl {2-amino-6-[(4-fluorobenzyl)amino]pyridin-3-yl}carbamate], for which, under setting [1], the “Duration” value was 17.0 days, the “GMS value (group mean score)” value came out at 1.9, the “INC (Incidence)” value is 15/15 and the “MMS value (mean maximal score)” value is on record as 3.1. For the same compound, under setting [1], the “MORT (Mortality)” value is on record as 0/15 and the “Onset” value was determined as 13.3 days. Under “0.5% MC + Flupirtin 30 mg/kg/day, read-out: INH 1 (percent inhibition according to incidence)”, the inhibition at 30 mg/kg amounted to 0%. Further, the inhibition at 30 mg/kg (0.5% MC + Flupirtin 30 mg/kg/day, read-out: INH 2 (percent inhibition according to MMS)) turned out to be 11.4%. Also, for the setting “0.5% MC + Flupirtin 30 mg/kg/day, read-out: INH 3 (percent inhibition / activity according to GMS)”, the inhibition at 30 mg/kg worked out at 17.4%.

With `CCN(C(=O)c1c(O)c2c(Cl)cccc2n(C)c1=O)c1ccccc1` [LAQ, 5-chloro-N-ethyl-4-hydroxy-1-methyl-2-oxo-N-phenyl-1,2-dihydroquinoline-3-carboxamide], under “LAQ 1 mg/kg/day + 0.5% MC”, the “Duration” value is 16.0 days, the “GMS value (group mean score)” value was found to be 1.9, the “INC (Incidence)” value is reported as 15/15 and the “MMS value (mean maximal score)” value is recorded as 3.4. Further, under “LAQ 1 mg/kg/day + 0.5% MC”, the “MORT (Mortality)” value is listed as 0/15 and the “Onset” value was 14.8 days. Moreover, for the setting “LAQ 5 mg/kg/day + 0.5% MC”, the “Duration” value amounted to 14.7 days, the “GMS value (group mean score)” value was found to be 1.6, the “INC (Incidence)” value is on record as 14/15 and the “MMS value (mean maximal score)” value came out at 2.9. Further, under “LAQ 5 mg/kg/day + 0.5% MC”, the “MORT (Mortality)” value is recorded as 0/15 and the “Onset” value amounted to 15.0 days.
